# Measured values reported in patent publication US10669272B2, “Substituted naphthyridinone compounds useful as T cell activators” (BRISTOL-MYERS SQUIBB COMPANY, priority 2018, dated 2020).
# Read-outs that look alike come from different tables or passages of the source.
# What was measured:
# human DGKα = target: T1, human DGKα (Homo sapiens, UniProt P23743); assay: DGKα LIPGLO assay (extruded liposome substrate), in vitro DGK inhibition; type: biochemical; conditions: read-out: DGKa LIPGLO IC50
# T1 construct: TVMV protease cleavage site (C); Hexa-His (C); made in house; host or cells: Sf9 insect cells (baculovirus, Bac-to-Bac)
# T1 sequence (P23743 with tags, fused parts or gaps): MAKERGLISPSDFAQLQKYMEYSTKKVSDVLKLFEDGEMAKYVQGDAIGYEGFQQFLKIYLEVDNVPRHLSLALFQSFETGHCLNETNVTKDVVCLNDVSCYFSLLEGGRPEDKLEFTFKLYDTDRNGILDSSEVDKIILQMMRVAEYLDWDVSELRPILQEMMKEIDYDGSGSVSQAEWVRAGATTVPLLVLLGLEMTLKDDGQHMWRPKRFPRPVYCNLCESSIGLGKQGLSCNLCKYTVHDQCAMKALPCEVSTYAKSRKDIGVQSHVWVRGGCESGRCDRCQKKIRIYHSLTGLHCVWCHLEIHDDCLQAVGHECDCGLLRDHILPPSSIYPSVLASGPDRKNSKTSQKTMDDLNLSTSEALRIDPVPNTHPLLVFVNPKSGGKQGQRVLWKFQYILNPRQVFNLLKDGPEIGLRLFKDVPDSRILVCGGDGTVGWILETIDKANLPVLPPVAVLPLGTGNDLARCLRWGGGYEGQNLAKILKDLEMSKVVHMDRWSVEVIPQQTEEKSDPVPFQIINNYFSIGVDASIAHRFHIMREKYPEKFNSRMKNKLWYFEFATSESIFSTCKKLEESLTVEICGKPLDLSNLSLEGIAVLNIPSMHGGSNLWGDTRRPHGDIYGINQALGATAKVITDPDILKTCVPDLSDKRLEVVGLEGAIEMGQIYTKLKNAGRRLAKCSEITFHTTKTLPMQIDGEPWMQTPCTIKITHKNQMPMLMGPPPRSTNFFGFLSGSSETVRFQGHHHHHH
# human DGKζ = target: T2, human DGKζ (Homo sapiens, UniProt Q13574); assay: DGKζ LIPGLO assay (extruded liposome substrate), in vitro DGK inhibition; type: biochemical; conditions: read-out: DGKz LIPGLO IC50
# T2 construct: TVMV protease cleavage site (C); Hexa-His (C); made in house; host or cells: Sf9 insect cells (baculovirus, Bac-to-Bac)
# T2 sequence (Q13574 with tags, fused parts or gaps isoform Q13574-4): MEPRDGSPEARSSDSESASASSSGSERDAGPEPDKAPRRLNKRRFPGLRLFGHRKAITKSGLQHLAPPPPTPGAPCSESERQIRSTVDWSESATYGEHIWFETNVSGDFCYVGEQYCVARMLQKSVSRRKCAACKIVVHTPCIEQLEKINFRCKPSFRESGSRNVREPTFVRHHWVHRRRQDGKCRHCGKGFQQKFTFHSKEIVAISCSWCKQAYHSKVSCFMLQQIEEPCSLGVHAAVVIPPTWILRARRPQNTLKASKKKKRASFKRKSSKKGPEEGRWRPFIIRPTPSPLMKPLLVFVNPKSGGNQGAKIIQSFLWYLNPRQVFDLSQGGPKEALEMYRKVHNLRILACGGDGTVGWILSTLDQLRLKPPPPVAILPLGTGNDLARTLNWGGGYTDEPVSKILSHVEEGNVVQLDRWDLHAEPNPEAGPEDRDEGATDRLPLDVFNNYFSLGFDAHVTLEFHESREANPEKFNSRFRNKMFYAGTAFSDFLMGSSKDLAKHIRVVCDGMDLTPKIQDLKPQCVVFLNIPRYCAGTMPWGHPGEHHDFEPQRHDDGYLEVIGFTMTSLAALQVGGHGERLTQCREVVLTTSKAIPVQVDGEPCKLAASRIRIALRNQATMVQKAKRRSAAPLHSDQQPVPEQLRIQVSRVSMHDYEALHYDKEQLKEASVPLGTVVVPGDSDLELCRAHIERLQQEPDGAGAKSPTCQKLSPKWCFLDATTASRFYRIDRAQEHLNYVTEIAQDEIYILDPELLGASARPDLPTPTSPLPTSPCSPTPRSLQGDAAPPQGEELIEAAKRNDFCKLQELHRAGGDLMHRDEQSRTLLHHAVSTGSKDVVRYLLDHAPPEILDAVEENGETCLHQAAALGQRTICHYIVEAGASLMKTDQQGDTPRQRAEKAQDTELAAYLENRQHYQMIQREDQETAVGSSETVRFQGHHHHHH
IC50 (human DGKα; DGKα liposome (LIPGLO) assay),IC50 (human DGKζ; DGKζ liposome (LIPGLO) assay),IC50 (human DGKα; liposome (LIPGLO) assay),IC50 (human DGKζ; liposome (LIPGLO) assay),Compound
1.2 µM,> 250 µM,,,"CC(c1ccc(F)cc1)N1C[C@H](C)N(c2c(C#N)c(=O)n(C)c3ccc(C#N)nc23)C[C@H]1C (single isomer, unassigned) [Example 783]"
0.61 µM,> 250 µM,,,"CC(c1ccc(Br)cc1)N1C[C@H](C)N(c2c(C#N)c(=O)n(C)c3ccc(C#N)nc23)C[C@H]1C (single isomer, unassigned) [Example 790]"
6.9 µM,11 µM,,,"COC(=O)c1ccc(C(C)N2C[C@H](C)N(c3c(C#N)c(=O)n(C)c4ccc(C#N)nc34)C[C@H]2C)cc1 (single isomer, unassigned) [Example 793]"
1.3 µM,5.7 µM,,,"C[C@@H]1CN(c2c(C#N)c(=O)n(C)c3ccc(C#N)nc23)[C@@H](C)CN1C(c1ccc(F)cc1)c1cn(C)cn1 (single isomer, unassigned) [Example 852]"
27 µM,20 µM,,,"C[C@@H]1CN(c2c(C#N)c(=O)n(C)c3ccc(C#N)nc23)[C@@H](C)CN1C(c1ccc(F)cc1)c1ccns1 (single isomer, unassigned) [Example 855]"
18 µM,14 µM,,,"Cc1cc(C(c2ccc(F)cc2)N2C[C@H](C)N(c3c(C#N)c(=O)n(C)c4ccc(C#N)nc34)C[C@H]2C)no1 (single isomer, unassigned) [Example 865]"
0.39 µM,1.7 µM,,,"C[C@@H]1CN(c2c(C#N)c(=O)n(C)c3ccc(C#N)nc23)CCN1C(c1ccc(Cl)cc1)c1ccc(F)cn1 (single isomer, unassigned) [Example 901]"
1.9 µM,1.8 µM,,,"C[C@@H]1CN(c2c(C#N)c(=O)n(C)c3ccc(C#N)nc23)CCN1C(c1ccc(F)cc1)c1cccc2c1OC(C)(C)C2 (single isomer, unassigned) [Example 935]"
,,0.023 µM,0.04 µM,"CCC(c1ccc(OC(F)(F)F)cc1F)N1C[C@H](CC)N(c2cc(=O)n(C)c3ccc(C#N)nc23)C[C@H]1CC (single isomer, unassigned) [Example 1057]"
,,0.072 µM,0.086 µM,"CC[C@@H]1CN(c2cc(=O)n(C)c3ccc(C#N)nc23)[C@@H](C)CN1C(C)c1ccc(F)cc1F (single isomer, unassigned) [Example 1087]"
,,4.1 µM,1.8 µM,"CC[C@@H]1CN(c2cc(=O)n(C)c3ccc(C#N)nc23)[C@@H](C)CN1C(C)c1c(F)cc(F)cc1F (single isomer, unassigned) [Example 1090]"
,,0.027 µM,0.018 µM,"CC[C@@H]1CN(c2cc(=O)n(C)c3ccc(C#N)nc23)[C@@H](C)CN1C(C)c1ccc(OC(F)(F)F)cc1F (single isomer, unassigned) [Example 1095]"
,,2.2 µM,1.4 µM,"CC[C@@H]1CN(c2cc(=O)n(C)c3ccc(C#N)nc23)[C@@H](C)CN1C(C)c1ccc(OC(F)(F)F)cc1F (single isomer, unassigned) [Example 1096]"
,,0.031 µM,0.09 µM,"CC[C@@H]1CN(c2cc(=O)n(C)c3ccc(C#N)nc23)[C@@H](C)CN1C(c1cccc(F)c1)c1ccc(F)cn1 (single isomer, unassigned) [Example 1108]"
,,1.8 µM,2.7 µM,"CC[C@H]1CN(C(c2ccc(C)cc2)c2ccc(Cl)cc2)[C@H](C)CN1c1cc(=O)n(C)c2ccc(C#N)nc12 (single isomer, unassigned) [Example 1121]"
,,0.48 µM,0.55 µM,"COC[C@@H]1CN(c2cc(=O)n(C)c3ccc(C#N)nc23)[C@@H](C)CN1C(C)c1ccc(OC(F)(F)F)cc1 (single isomer, unassigned) [Example 1162]"
,,12 µM,2.9 µM,"C[C@@H]1CN(C(c2ccc(F)cc2)c2ccc(C#N)cc2)[C@@H](CO)CN1c1cc(=O)n(C)c2ccc(C#N)nc12 (single isomer, unassigned) [Example 1176]"
,,10 µM,0.62 µM,"C[C@@H]1CN(C(c2ccc(F)cc2)c2ccc(C#N)cc2)[C@@H](CO)CN1c1cc(=O)n(C)c2ccc(C#N)nc12 (single isomer, unassigned) [Example 1177]"

# Second part, the compound before the results:
Compound,IC50 (human DGKα; DGKα liposome (LIPGLO) assay),IC50 (human DGKζ; DGKζ liposome (LIPGLO) assay),IC50 (human DGKα; liposome (LIPGLO) assay),IC50 (human DGKζ; liposome (LIPGLO) assay)
"C[C@@H]1CN(c2cc(=O)n(C)c3ccc(C#N)nc23)[C@@H](C)CN1C(c1ccc(F)cc1)c1nnc(C2CC2)s1 (single isomer, unassigned) [Example 775]",5.8 µM,6.6 µM,,
"C[C@@H]1CN(c2cc(=O)n(C)c3ccc(C#N)nc23)[C@@H](C)CN1C(c1ccc(F)cc1)c1nc(C(C)(C)C)co1 (single isomer, unassigned) [Example 778]",0.15 µM,0.34 µM,,
"CC(c1ccc(Br)cc1)N1C[C@H](C)N(c2c(C#N)c(=O)n(C)c3ccc(C#N)nc23)C[C@H]1C (single isomer, unassigned) [Example 789]",1.2 µM,7 µM,,
"COC(=O)c1ccc(C(C)N2C[C@H](C)N(c3c(C#N)c(=O)n(C)c4ccc(C#N)nc34)C[C@H]2C)cc1 (single isomer, unassigned) [Example 794]",24 µM,120 µM,,
"C[C@@H]1CN(c2c(C#N)c(=O)n(C)c3ccc(C#N)nc23)[C@@H](C)CN1C(c1ccc(F)cc1)c1ccc(C(F)(F)F)cn1 (single isomer, unassigned) [Example 837]",5.7 µM,35 µM,,
"C[C@@H]1CN(c2c(C#N)c(=O)n(C)c3ccc(C#N)nc23)[C@@H](C)CN1C(c1ccc(F)cc1)c1cscn1 (single isomer, unassigned) [Example 856]",0.33 µM,5.6 µM,,
"C[C@@H]1CN(c2c(C#N)c(=O)n(C)c3ccc(C#N)nc23)[C@@H](C)CN1C(c1ccc(F)cc1)c1cc(C2CC2)on1 (single isomer, unassigned) [Example 869]",17 µM,14 µM,,
"C[C@@H]1CN(c2c(C#N)c(=O)n(C)c3ccc(C#N)nc23)CCN1C(c1ccc(Cl)cc1)c1ccc(C#N)cc1 (single isomer, unassigned) [Example 872]",1.5 µM,1.4 µM,,
"C[C@@H]1CN(c2c(C#N)c(=O)n(C)c3ccc(C#N)nc23)CCN1C(c1ccc(Cl)cc1)c1ccc(C#N)cc1 (single isomer, unassigned) [Example 873]",2.6 µM,7.2 µM,,
"C[C@@H]1CN(c2c(C#N)c(=O)n(C)c3ccc(C#N)nc23)CCN1C(c1ccc(Cl)cc1)c1ccc(F)cn1 (single isomer, unassigned) [Example 900]",2.6 µM,0.8 µM,,
"Cc1ccc(C(c2cccc(F)c2)N2CCN(c3c(C#N)c(=O)n(C)c4ccc(C#N)nc34)C[C@H]2C)nc1 (single isomer, unassigned) [Example 912]",2.1 µM,0.58 µM,,
"C[C@@H]1CN(c2c(C#N)c(=O)n(C)c3ccc(C#N)nc23)CCN1C(c1ccc(F)cc1)c1cccc2c1OC(C)(C)C2 (single isomer, unassigned) [Example 934]",8.6 µM,5.4 µM,,
"Cc1ccc(C(c2ccc(Cl)cn2)N2CCN(c3c(C#N)c(=O)n(C)c4ccc(C#N)nc34)C[C@H]2C)cc1 (single isomer, unassigned) [Example 936]",1 µM,3.3 µM,,
"Cc1ccc(C(c2ccc(Cl)cn2)N2CCN(c3c(C#N)c(=O)n(C)c4ccc(C#N)nc34)C[C@H]2C)cc1 (single isomer, unassigned) [Example 937]",0.34 µM,1.1 µM,,
"CC(c1ccccn1)N1CCN(c2c(C#N)c(=O)n(C)c3ccc(C#N)nc23)C[C@H]1C (single isomer, unassigned) [Example 965]",0.96 µM,60 µM,,
"CC(c1cccc(C(F)(F)F)c1)N1CCN(c2c(C#N)c(=O)n(C)c3ccc(C#N)nc23)C[C@H]1C (single isomer, unassigned) [Example 971]",1.8 µM,4.9 µM,,
"CC(c1cccc(C(F)(F)F)c1)N1CCN(c2c(C#N)c(=O)n(C)c3ccc(C#N)nc23)C[C@H]1C (single isomer, unassigned) [Example 972]",20 µM,15 µM,,
"CC(c1ccc(Cl)cc1)N1CCN(c2c(C#N)c(=O)n(C)c3ccc(C#N)nc23)C[C@H]1C (single isomer, unassigned) [Example 978]",1.3 µM,4.9 µM,,
"CCC(c1ccc(OC(F)(F)F)cc1F)N1C[C@H](CC)N(c2cc(=O)n(C)c3ccc(C#N)nc23)C[C@H]1CC (single isomer, unassigned) [Example 1058]",,,0.75 µM,0.57 µM
"CCC(c1ccc(OC(F)(F)F)cc1)N1C[C@H](CC)N(c2cc(=O)n(C)c3ccc(C#N)nc23)C[C@H]1CC (single isomer, unassigned) [Example 1059]",,,0.009 µM,0.044 µM
"CC[C@@H]1CN(c2cc(=O)n(C)c3ccc(C#N)nc23)[C@@H](C)CN1C(C)c1ccc(F)cc1F (single isomer, unassigned) [Example 1088]",,,3.4 µM,4.9 µM
"CC[C@@H]1CN(c2cc(=O)n(C)c3ccc(C#N)nc23)[C@@H](C)CN1C(C)c1c(F)cc(F)cc1F (single isomer, unassigned) [Example 1089]",,,0.51 µM,0.12 µM
"CC[C@@H]1CN(c2cc(=O)n(C)c3ccc(C#N)nc23)[C@@H](C)CN1C(C)c1ccc(C(F)(F)F)cc1 (single isomer, unassigned) [Example 1094]",,,0.46 µM,2.1 µM
"CC[C@H]1CN(C(c2ccc(C)cc2)c2ccc(Cl)cc2)[C@H](C)CN1c1cc(=O)n(C)c2ccc(C#N)nc12 (single isomer, unassigned) [Example 1122]",,,0.71 µM,0.84 µM
"COC[C@@H]1CN(c2cc(=O)n(C)c3ccc(C#N)nc23)[C@@H](C)CN1C(C)c1ccc(OC(F)(F)F)cc1 (single isomer, unassigned) [Example 1163]",,,10 µM,7.5 µM
"CC(c1ccc(OC(F)(F)F)cc1)N1C[C@@H](C)N(c2cc(=O)n(C)c3ccc(C#N)nc23)C[C@@H]1CO (single isomer, unassigned) [Example 1180]",,,7.6 µM,1.4 µM
